{"source": "BindingDB's records for doi:10.1021/jm9904102", "about": "(Abbott Laboratories, 2000)"}
{"test": "Inhibition of calcium ionophore (A-23187)-stimulated LTB4 formation in human neutrophil assay", "units": {"IC50": "nM"}}
{"smiles": "O=C(O)/C=N/OC(c1ccc(CCc2ccc3ccccc3n2)cc1)C1CCCCC1", "note": "(stereo not drawn) [{Cyclohexyl-[4-(2-quinolin-2-yl-ethyl)-phenyl]-methoxyimino}-acetic acid (0.25H2O)]", "IC50": 290}
{"smiles": "O=C(O)/C(Cc1ccc(O)cc1)=N/OC(c1ccc(OCc2ccc3ccccc3n2)cc1)C1CCCCC1", "note": "(stereo not drawn) [2-{Cyclohexyl-[4-(quinolin-2-ylmethoxy)-phenyl]-methoxyimino}-3-(4-hydroxy-phenyl)-propionic acid]", "IC50": 43}
{"smiles": "C/C(=N\\OC(c1ccc(OCc2ccc3ccccc3n2)cc1)c1cccs1)C(=O)O", "note": "(stereo not drawn) [2-{[4-(Quinolin-2-ylmethoxy)-phenyl]-thiophen-2-yl-methoxyimino}-propionic acid]", "IC50": 33}
{"smiles": "O=C(O)/C=N/OC(c1ccc(/C=C/c2ccc3ccccc3n2)cc1)C1CCCCC1", "note": "(stereo not drawn) [{Cyclohexyl-[4-(2-quinolin-2-yl-vinyl)-phenyl]-methoxyimino}-acetic acid (0.25H2O)]", "IC50": 91}
{"smiles": "C=CCC(O/N=C(\\C)C(=O)O)c1ccc(OCc2ccc3ccccc3n2)cc1", "note": "(stereo not drawn) [2-{1-[4-(Quinolin-2-ylmethoxy)-phenyl]-but-3-enyloxyimino}-propionic acid]", "IC50": 142}
{"smiles": "CCCCC(O/N=C/C(=O)O)c1ccc(OCc2ccc3ccccc3n2)cc1", "note": "(stereo not drawn) [{1-[4-(Quinolin-2-ylmethoxy)-phenyl]-pentyloxyimino}-acetic acid]", "IC50": 52}
{"smiles": "C/C(=N\\OC(c1cc2ccc(OCc3ccc4ccccc4n3)cc2s1)C1CCCCC1)C(=O)O", "note": "(stereo not drawn) [2-{Cyclohexyl-[6-(quinolin-2-ylmethoxy)-benzo[b]thiophen-2-yl]-methoxyimino}-propionic acid]", "IC50": 40}
{"smiles": "O=C(O)/C=N/OC(c1ccc(OCc2ccccn2)cc1)C1CCCCC1", "note": "(stereo not drawn) [{Cyclohexyl-[4-(pyridin-2-ylmethoxy)-phenyl]-methoxyimino}-acetic acid]", "IC50": 150}
{"smiles": "O=C(O)/C=N/OC(c1ccc(OCc2cc(-c3ccccc3)on2)cc1)C1CCCCC1", "note": "(stereo not drawn) [{Cyclohexyl-[4-(5-phenyl-isoxazol-3-ylmethoxy)-phenyl]-methoxyimino}-acetic acid]", "IC50": 140}
{"smiles": "C/C(=N\\OC(Cc1ccc(OCc2ccc3ccccc3n2)cc1)C1CCCCC1)C(=O)O", "note": "(stereo not drawn) [2-{1-Cyclohexyl-2-[4-(quinolin-2-ylmethoxy)-phenyl]-ethoxyimino}-propionic acid]", "IC50": 50}
{"smiles": "O=C(O)/C=N/OC(c1ccc(OCc2csc(-c3ccc(Cl)cc3)n2)cc1)C1CCCCC1", "note": "(stereo not drawn) [({4-[2-(4-Chloro-phenyl)-thiazol-4-ylmethoxy]-phenyl}-cyclohexyl-methoxyimino)-acetic acid]", "IC50": 490}
{"smiles": "C/C(=N\\O[C@H](c1ccc(OCc2ccc3ccccc3n2)cc1)C1CCCCC1)C(=O)O", "IC50": 8}
{"smiles": "C/C(=N\\OC(c1ccc(OCc2nc(-c3ccccc3)cs2)cc1)C1CCCCC1)C(=O)O", "note": "(stereo not drawn) [2-{Cyclohexyl-[4-(4-phenyl-thiazol-2-ylmethoxy)-phenyl]-methoxyimino}-propionic acid (0.5H2O)]", "IC50": 20}
{"smiles": "C/C(=N\\OC(c1cc(OCc2ccc3ccccc3n2)on1)C1CCCCC1)C(=O)O", "note": "(stereo not drawn) [2-{Cyclohexyl-[5-(quinolin-2-ylmethoxy)-isoxazol-3-yl]-methoxyimino}-propionic acid]", "IC50": 490}
{"smiles": "O=C(O)/C=N/OC(c1ccc2cc(OCc3ccc4ccccc4n3)ccc2c1)C1CCCCC1", "note": "(stereo not drawn) [{Cyclohexyl-[6-(quinolin-2-ylmethoxy)-naphthalen-2-yl]-methoxyimino}-acetic acid]", "IC50": 56}
{"smiles": "O=C(O)/C=N/OC(c1ccc(OCc2nc3cc(F)ccc3s2)cc1)C1CCCCC1", "note": "(stereo not drawn) [{Cyclohexyl-[4-(5-fluoro-benzothiazol-2-ylmethoxy)-phenyl]-methoxyimino}-acetic acid]", "IC50": 87}
{"smiles": "C/C(=N\\OC(c1ccc(OCc2nc3cc(F)ccc3s2)cc1Cl)C1CCCCC1)C(=O)O", "note": "(stereo not drawn) [2-{[2-Chloro-4-(5-fluoro-benzothiazol-2-ylmethoxy)-phenyl]-cyclohexyl-methoxyimino}-propionic acid]", "IC50": 48}
{"smiles": "O=C(O)/C=N/OC(c1ccc(OCc2nc3ccccc3s2)cc1Cl)C1CCCCC1", "note": "(stereo not drawn) [{[4-(Benzothiazol-2-ylmethoxy)-2-chloro-phenyl]-cyclohexyl-methoxyimino}-acetic acid]", "IC50": 28}
{"smiles": "O=C(O)/C=N/OC(c1ccc(OCc2ccc3ccccc3n2)cc1)C1CCCCC1", "note": "(stereo not drawn) [{Cyclohexyl-[4-(quinolin-2-ylmethoxy)-phenyl]-methoxyimino}-acetic acid]", "IC50": 17}
{"smiles": "C/C(=N\\OC(c1ccc(OCc2ccc3ccccc3n2)cc1)C1C2CC3CC(C2)CC1C3)C(=O)O", "note": "(stereo not drawn) [2-{Adamantan-2-yl-[4-(quinolin-2-ylmethoxy)-phenyl]-methoxyimino}-propionic acid]", "IC50": 20}
{"smiles": "O=C(O)/C=N/OC(c1ccc(OCc2nc(-c3ccccc3)cs2)cc1)C1CCCCC1", "note": "(stereo not drawn) [{Cyclohexyl-[4-(4-phenyl-thiazol-2-ylmethoxy)-phenyl]-methoxyimino}-acetic acid (1.25H2O)]", "IC50": 21}
{"smiles": "O=C(O)/C(=N/OC(c1ccc(OCc2ccc3ccccc3n2)cc1)C1CCCCC1)c1cccs1", "note": "(stereo not drawn) [(E)-{Cyclohexyl-[4-(quinolin-2-ylmethoxy)-phenyl]-methoxyimino}-thiophen-2-yl-acetic acid (2.5H2O)]", "IC50": 21}
{"smiles": "CC(C)(CC(O/N=C/C(=O)O)c1ccc(OCc2ccc3ccccc3n2)cc1)c1ccccc1", "note": "(stereo not drawn) [{3-Methyl-3-phenyl-1-[4-(quinolin-2-ylmethoxy)-phenyl]-butoxyimino}-acetic acid]", "IC50": 10}
{"smiles": "CC/C(=N\\OC(c1ccc(OCc2ccc3ccccc3n2)cc1)C1CCCCC1)C(=O)O", "note": "(stereo not drawn) [2-{Cyclohexyl-[4-(quinolin-2-ylmethoxy)-phenyl]-methoxyimino}-butyric acid (H2O)]", "IC50": 30}
{"smiles": "C/C(=N\\OCC(c1ccc(OCc2ccc3ccccc3n2)cc1)C1CCCCC1)C(=O)O", "note": "(stereo not drawn) [2-{2-Cyclohexyl-2-[4-(quinolin-2-ylmethoxy)-phenyl]-ethoxyimino}-propionic acid]", "IC50": 20}
{"smiles": "O=C(O)/C=N/OC(c1ccc(OCc2nc3cc(F)ccc3s2)cc1Cl)C1CCCCC1", "note": "(stereo not drawn) [{[2-Chloro-4-(5-fluoro-benzothiazol-2-ylmethoxy)-phenyl]-cyclohexyl-methoxyimino}-acetic acid]", "IC50": 14}
{"smiles": "O=C(O)/C(=N\\OC(c1ccc(OCc2ccc3ccccc3n2)cc1)C1CCCCC1)c1cccs1", "note": "(stereo not drawn)", "IC50": 23}
{"smiles": "O=C(O)/C=N/OC(c1ccc(OCc2ccc3ccccc3n2)cc1)C1CCCCCC1", "note": "(stereo not drawn) [{Cycloheptyl-[4-(quinolin-2-ylmethoxy)-phenyl]-methoxyimino}-acetic acid]", "IC50": 18}
{"smiles": "C/C(=N\\OC(c1ccc(OCc2ccc3ccccc3n2)cc1)C1CCCC1)C(=O)O", "note": "(stereo not drawn) [2-{Cyclopentyl-[4-(quinolin-2-ylmethoxy)-phenyl]-methoxyimino}-propionic acid]", "IC50": 16}
{"smiles": "COc1cc(OCc2ccc3ccccc3n2)ccc1C(O/N=C/C(=O)O)C1CCCCC1", "note": "(stereo not drawn) [{Cyclohexyl-[2-methoxy-4-(quinolin-2-ylmethoxy)-phenyl]-methoxyimino}-acetic acid]", "IC50": 20}
{"smiles": "O=C(O)/C=N/OC(c1ccc(Oc2ccc3ccccc3n2)cc1)C1CCCCC1", "note": "(stereo not drawn) [{Cyclohexyl-[4-(quinolin-2-yloxy)-phenyl]-methoxyimino}-acetic acid (0.25H2O)]", "IC50": 160}
{"smiles": "C/C(=N\\OC(c1ccc(OCc2ccc3cc(F)ccc3n2)cc1)C1CCCCC1)C(=O)O", "note": "(stereo not drawn) [2-{Cyclohexyl-[4-(6-fluoro-quinolin-2-ylmethoxy)-phenyl]-methoxyimino}-propionic acid]", "IC50": 20}
{"smiles": "CC(/C=C/C(=O)O)=N\\OC(c1ccc(OCc2ccc3ccccc3n2)cc1)C1CCCCC1", "note": "(stereo not drawn) [4-{Cyclohexyl-[4-(quinolin-2-ylmethoxy)-phenyl]-methoxyimino}-pent-2-enoic acid (0.25H2O)]", "IC50": 40}
